Assay results taken from patent US20100086483A1, “METHOD OF MULTIDETECTOR COMPUTED TOMAGRAPHY” (Gilead Palo Alto, Inc., priority 2008, published 2010).

Tests used:
conscious dogs = assay: Effects of caffeine on regadenoson-induced coronary vasodilation and changes in hemodynamics in conscious dogs (Part II); format: in vivo, dog; settings: for change of maximum increase in CBF induced by regadenoson vs control: regadenoson 5 μg/kg IV, p>0.05
Method: Sixteen chronically instrumented male mongrel dogs weighing from 22-30 kg were used in the study. The animal protocol was approved by the Institutional Animal Care and Use Committee of New York Medical College and conforms to the Guide for the Care and Use of Laboratory Animal by the United States National Institutes of Health.
Dogs were sedated with acepromazine (0.3 mg/kg, IM) and anesthetized with pentobarbital sodium (25 mg/kg, IV). After intubation, dogs were artificially ventilated with room air. A thoracotomy was made in the fifth intercostal space using sterile techniques. A Tygon catheter (Cardiovascular Instruments, Wakefield, Mass.) was inserted into the descending thoracic aorta and another one was inserted into the left atrium. In 9 dogs, an ultrasound flow transducer (Transonic Systems, Ithaca, N.Y.) was placed around the left circumflex coronary artery. A solid-state pressure gauge (P6.5, Konisberg Instruments, Pasadena, Calif.) was placed into the left ventricle through the apex. The chest was closed in layers. The catheters and wires were tunneled subcutaneously and externalized through the skin at the back of the dog's neck. Dogs were allowed to recover from the surgery before experiments were performed, and were trained to lie on a table.
Phasic arterial pressure was measured by connecting the aortic catheter to a strain gauge transducer (P23 ID, LDS Test and Measurement, Valley View, Ohio). Left ventricular pressures were measured by the solid pressure gauge. CBF (mL/min) was measured from an ultrasound flow transducer using a Transonic flowmeter (T206, Transonic Systems, Ithaca, N.Y.). Two indices were used to describe the regadenoson-induced coronary vasodilation: 1) the maximum increase in CBF and 2) the duration of the 2-fold increase in CBF (the period of time that CBF was elevated to a level ≧2-fold of baseline CBF). All pressure and flow data were acquired and analyzed using a Ponemah System (Version 3.30 or 4.20, LDS Test and Measurement, Valley View, Ohio). MAP and HR were calculated from phasic blood pressure, and LV dP/dtMax was calculated from the left ventricular systolic pressure.
On the day of an experiment, a dog was placed on a table, where it lay quietly during the experiment. A catheter was inserted into a peripheral vein in the leg and attached to an infusion line to administer drugs without disturbing the dog. The experiment was begun after MAP, HR and CBF were stable.
Each dog received an IV injection of 5 μg/kg of regadenoson. […] LVSP, LV dP/dtMax, MAP, HR and CBF were recorded continuously. Blood samples were taken from the left atrial catheter at 1, 3, 5, 15, 30, 45 and 60 min following injections of regadenoson.
In 4 dogs, two doses of regadenoson (5 μg/kg, IV) were given 90 min apart (without blood sampling) to determine if there is tachyphylaxis of regadenoson-induced coronary vasodilation.
The statistical significance of a difference between the value of a parameter at baseline and at the indicated time point after drug administration was determined using a One-Way Repeated Measures ANOVA followed by Tukey's Test. […] Results with p<0.05 were considered to be significant. […] All data are presented as Mean±SEM.

normal subjects = assay: PET myocardial blood flow / coronary flow reserve after regadenoson with and without caffeine, crossover study; format: in vivo, human
Method: 15O water was used as the radionuclide in the PET scans. There was a 1- to 14-day washout period between dosing days. Blood samples and measures of safety were collected until 120 minutes after study drug administration.
The CVT tracking number for the placebo capsules was 1341 (Leg 2).
The primary efficacy measure was the log coronary flow reserve (CFR), which is the ratio of stress MBF after regadenoson dosing to the resting MBF.
The data were also to be analyzed using Wilcoxon's rank-sum test.

[1] = regadenoson 5 μg/kg IV 45 min after caffeine 1 mg/kg IV, 1 min
[2] = regadenoson 5 μg/kg IV 45 min after caffeine 1 mg/kg IV, 2 min
[3] = regadenoson 5 μg/kg IV 45 min after caffeine 1 mg/kg IV, 3 min
[4] = regadenoson 5 μg/kg IV 45 min after caffeine 1 mg/kg IV, 20 min
[5] = regadenoson 5 μg/kg IV 45 min after caffeine 2 mg/kg IV, 1 min
[6] = caffeine 200 mg po, regadenoson 400 μg IV

Cn1c(=O)c2c(ncn2C)n(C)c1=O [Caffeine, caffeine]
HR (conscious dogs; 45 min after caffeine 1 mg/kg IV, before regadenoson (baseline)): 74 ± 5 bpm | HR (conscious dogs; 45 min after caffeine 2 mg/kg IV, before regadenoson (baseline)): 75 ± 5 bpm | HR (conscious dogs; 45 min after caffeine 4 mg/kg IV, before regadenoson (baseline)): 81 ± 9 bpm | HR (conscious dogs; 45 min after caffeine 10 mg/kg IV, before regadenoson (baseline)): 78 ± 6 bpm | baseline CBF before vs after caffeine treatment (conscious dogs; 45 min after caffeine 1, 2, 4 and 10 mg/kg): not significantly different | change of maximum increase in CBF induced by regadenoson vs control (conscious dogs; caffeine 1 mg/kg IV): 2±3% | change of maximum increase in CBF induced by regadenoson vs control (conscious dogs; caffeine 2 mg/kg IV): −0.7±3% | change of maximum increase in CBF induced by regadenoson vs control (conscious dogs; caffeine 4 mg/kg IV): −16±5% | change of maximum increase in CBF induced by regadenoson vs control (conscious dogs; caffeine 10 mg/kg IV): −13±8% | effect on hemodynamics at 45 min following caffeine administration (conscious dogs; caffeine at 1, 2, 4 or 10 mg/kg): did not alter hemodynamics significantly | regadenoson-induced increase in LV dP/dtMax vs without caffeine (conscious dogs; in the presence of caffeine 1 mg/kg): slightly greater | regadenoson-induced increase in LV dP/dtMax vs without caffeine (conscious dogs; in the presence of caffeine 10 mg/kg): not altered | regadenoson-induced increase in LV dP/dtMax vs without caffeine (conscious dogs; in the presence of caffeine at 2 and 4 mg/kg): slightly smaller | HR (conscious dogs; regadenoson 5 μg/kg IV 45 min after caffeine 1 mg/kg IV, 0.5 min): 126 ± 7 bpm | HR (conscious dogs; [1]): 135 ± 9 bpm | MAP (conscious dogs; [1]): 100 ± 4 mm Hg | HR (conscious dogs; [2]): 131 ± 12 bpm | MAP (conscious dogs; [2]): 102 ± 4 mm Hg | HR (conscious dogs; [3]): 119 ± 9 bpm | MAP (conscious dogs; [3]): 101 ± 5 mm Hg | HR (conscious dogs; regadenoson 5 μg/kg IV 45 min after caffeine 1 mg/kg IV, 4 min): 110 ± 4 bpm | HR (conscious dogs; regadenoson 5 μg/kg IV 45 min after caffeine 1 mg/kg IV, 5 min): 106 ± 7 bpm | HR (conscious dogs; regadenoson 5 μg/kg IV 45 min after caffeine 1 mg/kg IV, 10 min): 89 ± 7 bpm | HR (conscious dogs; regadenoson 5 μg/kg IV 45 min after caffeine 1 mg/kg IV, 15 min): 87 ± 7 bpm | HR (conscious dogs; [4]): 81 ± 8 bpm | MAP (conscious dogs; [4]): 102 ± 4 mm Hg | HR (conscious dogs; regadenoson 5 μg/kg IV 45 min after caffeine 2 mg/kg IV, 0.5 min): 121 ± 10 bpm | HR (conscious dogs; [5]): 125 ± 10 bpm | MAP (conscious dogs; [5]): 102 ± 7 mm Hg | HR (conscious dogs; regadenoson 5 μg/kg IV 45 min after caffeine 2 mg/kg IV, 2 min): 122 ± 5 bpm | HR (conscious dogs; regadenoson 5 μg/kg IV 45 min after caffeine 2 mg/kg IV, 3 min): 110 ± 3 bpm | HR (conscious dogs; regadenoson 5 μg/kg IV 45 min after caffeine 2 mg/kg IV, 4 min): 106 ± 4 bpm | HR (conscious dogs; regadenoson 5 μg/kg IV 45 min after caffeine 2 mg/kg IV, 5 min): 97 ± 3 bpm | HR (conscious dogs; regadenoson 5 μg/kg IV 45 min after caffeine 2 mg/kg IV, 10 min): 84 ± 5 bpm | HR (conscious dogs; regadenoson 5 μg/kg IV 45 min after caffeine 2 mg/kg IV, 15 min): 85 ± 6 bpm | HR (conscious dogs; regadenoson 5 μg/kg IV 45 min after caffeine 2 mg/kg IV, 20 min): 84 ± 5 bpm | HR (conscious dogs; regadenoson 5 μg/kg IV 45 min after caffeine 4 mg/kg IV, 0.5 min): 126 ± 12 bpm | HR (conscious dogs; regadenoson 5 μg/kg IV 45 min after caffeine 4 mg/kg IV, 1 min): 114 ± 11 bpm | HR (conscious dogs; regadenoson 5 μg/kg IV 45 min after caffeine 4 mg/kg IV, 2 min): 106 ± 12 bpm | HR (conscious dogs; regadenoson 5 μg/kg IV 45 min after caffeine 4 mg/kg IV, 3 min): 102 ± 7 bpm | HR (conscious dogs; regadenoson 5 μg/kg IV 45 min after caffeine 4 mg/kg IV, 4 min): 94 ± 8 bpm | HR (conscious dogs; regadenoson 5 μg/kg IV 45 min after caffeine 4 mg/kg IV, 5 min): 94 ± 7 bpm | HR (conscious dogs; regadenoson 5 μg/kg IV 45 min after caffeine 4 mg/kg IV, 10 min): 85 ± 8 bpm | HR (conscious dogs; regadenoson 5 μg/kg IV 45 min after caffeine 4 mg/kg IV, 15 min): 85 ± 8 bpm | HR (conscious dogs; regadenoson 5 μg/kg IV 45 min after caffeine 4 mg/kg IV, 20 min): 87 ± 7 bpm | HR (conscious dogs; regadenoson 5 μg/kg IV 45 min after caffeine 10 mg/kg IV, 0.5 min): 115 ± 12 bpm | HR (conscious dogs; regadenoson 5 μg/kg IV 45 min after caffeine 10 mg/kg IV, 1 min): 102 ± 6 bpm | HR (conscious dogs; regadenoson 5 μg/kg IV 45 min after caffeine 10 mg/kg IV, 2 min): 106 ± 11 bpm | HR (conscious dogs; regadenoson 5 μg/kg IV 45 min after caffeine 10 mg/kg IV, 3 min): 96 ± 7 bpm | HR (conscious dogs; regadenoson 5 μg/kg IV 45 min after caffeine 10 mg/kg IV, 4 min): 94 ± 8 bpm | HR (conscious dogs; regadenoson 5 μg/kg IV 45 min after caffeine 10 mg/kg IV, 5 min): 93 ± 5 bpm | HR (conscious dogs; regadenoson 5 μg/kg IV 45 min after caffeine 10 mg/kg IV, 10 min): 88 ± 7 bpm | HR (conscious dogs; regadenoson 5 μg/kg IV 45 min after caffeine 10 mg/kg IV, 15 min): 88 ± 6 bpm | HR (conscious dogs; regadenoson 5 μg/kg IV 45 min after caffeine 10 mg/kg IV, 20 min): 86 ± 4 bpm | change in CFR (95% confidence) (normal subjects; caffeine 200 mg po vs placebo, regadenoson 400 μg IV): < 20% | exponentiated lower limit of 90% confidence interval for log CFR (caffeine versus placebo difference) (normal subjects; [6]): 0.80 | exponentiated lower limit of 95% confidence interval for log CFR (caffeine versus placebo difference) (normal subjects; [6]): 0.78 | exponentiated upper limit of 90% confidence interval for log CFR (caffeine versus placebo difference) (normal subjects; [6]): 1.06 | exponentiated upper limit of 95% confidence interval for log CFR (caffeine versus placebo difference) (normal subjects; [6]): 1.08 | interaction of caffeine with regadenoson on CFR by sex (normal subjects; [6]): no significant interaction | CFR (stress/rest) (normal subjects; regadenoson 400 μg IV after caffeine 200 mg po): 2.75±0.16 | log CFR±SE (normal subjects; regadenoson 400 μg IV after caffeine 200 mg po, n=40): 0.95±0.06
